Data taken from article PMC6751662, “Pharmacological and functional similarities of the human neuropeptide Y system in C. elegans challenges phylogenetic views on the FLP/NPR system” (Cell Communication and Signaling : CCS, 2019).

Experiments:
NPR-6 = assay: IP accumulation assay, chimeric GαΔ6qi4myr, NPR-6; format: cell-based, C. elegans; conditions: 1 h, HBSS + 20 mM LiCl, HEK293 receptor + GαΔ6qi4myr, HTRF IP-One
Description: (§1) For measuring IP accumulation, HEK293 cells grown to 70–80% confluency in 6-well plates were transiently co-transfected using Metafectene Pro (2.5 μl/μg DNA; Biontex) with plasmids containing receptor and/or mock (empty pcDNA3.1) (for endogenous Gq-coupling) using 4 μg total DNA in a ratio of 3:1 following the manufacturer’s instructions. For testing Gα16- and GαΔ6qi4myr-coupling, plasmids encoding the corresponding Gα protein were co-transfected instead of mock. Gα16 is naturally promiscuous and stimulates the phospholipase C (PLC) pathway leading to IP production, while the exchange of the C-terminal four amino acids of Gαq for the corresponding residues of Gαi1 in the chimeric GαΔ6qi4myr confers the ability to couple to Gi/o protein-preferring receptors but still stimulate PLC, thus specifically redirecting downstream cellular signaling. 16 h post transfection, the cells were seeded into white 384-well plates at a density of 20,000 cells/well. Media was removed 24 h later and the cells were incubated with the indicated concentration of peptides for 1 h in HBSS + 20 mM LiCl. IP accumulation was measured with the HTRF-based IP-One Gq kit (Cisbio) on a microplate reader (Tecan Spark).
(§2) For in vitro activation, data is presented as mean ± SEM of at least three independent experiments conducted in technical triplicate. […] For the C. elegans NPRs, we considered the strongest response elicited by any of the peptides downstream of a particular receptor as the receptor’s maximal signal. This may or may not be the biological maximum that can be reached by the ‘true’ endogenous agonist. For the human receptors, the response to the established endogenous agonist reflected the maximal signal.

NPR-4b = target: T1, NPR-4b (Caenorhabditis elegans, UniProt A0A078BTK0); assay: IP accumulation assay, chimeric GαΔ6qi4myr, NPR-4b; format: cell-based, C. elegans; conditions: 1 h, HBSS + 20 mM LiCl, HEK293 receptor + GαΔ6qi4myr, HTRF IP-One
T1 sequence (A0A078BTK0 1-376): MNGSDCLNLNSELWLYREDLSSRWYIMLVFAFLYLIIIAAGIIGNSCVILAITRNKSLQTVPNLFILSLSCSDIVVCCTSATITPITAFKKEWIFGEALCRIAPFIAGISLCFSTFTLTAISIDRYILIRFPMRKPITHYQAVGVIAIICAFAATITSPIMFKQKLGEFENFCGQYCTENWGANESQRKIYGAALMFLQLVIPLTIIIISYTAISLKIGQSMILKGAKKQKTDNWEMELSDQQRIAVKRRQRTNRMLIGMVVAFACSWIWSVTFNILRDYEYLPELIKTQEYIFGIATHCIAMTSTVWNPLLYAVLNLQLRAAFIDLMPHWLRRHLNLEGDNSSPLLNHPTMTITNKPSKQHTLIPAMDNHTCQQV
Description: as §1, §2

Y4R = target: T2, Y4R (Homo sapiens, UniProt P50391); assay: cAMP reporter gene assay, Gi/o, Y4R; format: cell-based; conditions: for Gi (Gs) [x-fold of forskolin], Y4R, mean: inhibition of cAMP production induced by 1 µM forskolin (set to 1.00), transiently transfected HEK293 cells, mean of at least three independent experiments; for cAMP assay (Gi/o), Y4R: 4 h, lower = higher Gi/o activity, transfected HEK293, CRE-luciferase, mean of >=3 independent experiments
T2 construct: expressed in transfected cells; host or cells: HEK293, transient
T2 sequence (P50391 whole entry): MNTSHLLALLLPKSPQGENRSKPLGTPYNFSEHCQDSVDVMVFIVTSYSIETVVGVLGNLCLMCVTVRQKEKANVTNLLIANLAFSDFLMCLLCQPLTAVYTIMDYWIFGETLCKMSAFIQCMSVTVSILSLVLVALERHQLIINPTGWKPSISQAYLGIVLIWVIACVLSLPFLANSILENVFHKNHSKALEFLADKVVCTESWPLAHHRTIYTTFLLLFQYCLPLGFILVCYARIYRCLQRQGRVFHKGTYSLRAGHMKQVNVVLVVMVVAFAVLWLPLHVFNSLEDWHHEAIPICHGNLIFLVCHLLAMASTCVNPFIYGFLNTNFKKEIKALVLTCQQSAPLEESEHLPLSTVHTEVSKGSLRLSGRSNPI
Description: (§3) Activation of Gs and Gi/o was assessed with a cAMP reporter gene assay. HEK293 cells grown to 70–80% confluency in 6-well plates were transiently co-transfected with vectors encoding the receptor and the cAMP reporter gene plasmid pGL4.29 [luc2P/CRE/Hygro] (Promega; 4 μg total, 1:1 ratio) using Metafectene Pro (3 μl/μg DNA; Biontex) following the manufacturer’s instructions. 16 h post transfection, the cells were seeded into white 384-well plates at a density of 20,000 cells/well. On the next day, the medium was removed and the cells were stimulated with 20 μl of peptide solution (or forskolin as positive control) in serum-free DMEM for 4 h. For measuring Gi/o activity, the peptide solutions additionally contained 1 μM forskolin to elevate cellular cAMP levels. After incubation, the luciferase substrate OneGlo in lysis buffer (Promega) was added and the luminescence was measured in a microplate reader Tecan Spark (Tecan). Data were analyzed with GraphPad Prism 5.03 and are shown as fold of basal or fold of forskolin in case of Gαi/o activity.
as §2

Y5R = target: T3, Y5R (Homo sapiens, UniProt Q15761); assay: cAMP reporter gene assay, Gi/o, Y5R; format: cell-based; conditions: for Gi (Gs) [x-fold of forskolin], Y5R, mean: inhibition of cAMP production induced by 1 µM forskolin (set to 1.00), transiently transfected HEK293 cells, mean of at least three independent experiments; for cAMP assay (Gi/o), Y5R: 4 h, lower = higher Gi/o activity, transfected HEK293, CRE-luciferase, mean of >=3 independent experiments
T3 construct: expressed in transfected cells; host or cells: HEK293, transient
T3 sequence (Q15761 1-445): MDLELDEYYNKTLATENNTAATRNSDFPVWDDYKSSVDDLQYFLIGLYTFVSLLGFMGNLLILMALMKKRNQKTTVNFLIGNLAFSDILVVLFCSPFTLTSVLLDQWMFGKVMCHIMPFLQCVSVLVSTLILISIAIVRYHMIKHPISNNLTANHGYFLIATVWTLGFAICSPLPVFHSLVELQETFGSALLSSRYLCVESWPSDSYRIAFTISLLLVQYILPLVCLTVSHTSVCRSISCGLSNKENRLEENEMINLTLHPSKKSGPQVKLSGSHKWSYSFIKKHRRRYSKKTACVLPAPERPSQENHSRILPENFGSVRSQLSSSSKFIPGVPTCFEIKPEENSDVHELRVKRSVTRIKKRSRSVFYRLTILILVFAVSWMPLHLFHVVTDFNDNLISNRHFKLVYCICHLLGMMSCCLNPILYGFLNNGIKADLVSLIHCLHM
Description: as §3, §2

Y1R = target: T4, Y1R (Homo sapiens, UniProt P25929); assay: cAMP reporter gene assay, Gi/o, Y1R; format: cell-based; conditions: for Gi (Gs) [x-fold of forskolin], Y1R, mean: inhibition of cAMP production induced by 1 µM forskolin (set to 1.00), transiently transfected HEK293 cells, mean of at least three independent experiments; for cAMP assay (Gi/o), Y1R: 4 h, lower = higher Gi/o activity, transfected HEK293, CRE-luciferase, mean of >=3 independent experiments
T4 construct: expressed in transfected cells; host or cells: HEK293, transient
T4 sequence (P25929 1-384): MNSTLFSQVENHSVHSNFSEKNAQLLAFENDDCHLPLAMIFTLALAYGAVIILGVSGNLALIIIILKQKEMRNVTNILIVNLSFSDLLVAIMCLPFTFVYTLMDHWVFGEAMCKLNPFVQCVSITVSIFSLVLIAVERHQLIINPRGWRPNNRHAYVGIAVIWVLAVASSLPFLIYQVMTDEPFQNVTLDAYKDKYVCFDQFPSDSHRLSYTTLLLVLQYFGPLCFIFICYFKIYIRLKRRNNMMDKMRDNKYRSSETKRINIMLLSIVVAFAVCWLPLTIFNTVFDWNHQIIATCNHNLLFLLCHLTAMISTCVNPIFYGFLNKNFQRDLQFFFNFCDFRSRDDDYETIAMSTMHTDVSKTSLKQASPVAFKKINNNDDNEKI
Description: as §3, §2

NPFF2R = target: T5, NPFF2R (Homo sapiens, UniProt Q9Y5X5); assay: cAMP reporter gene assay, Gi/o, NPFF2R; format: cell-based; conditions: for Gi (Gs) [x-fold of forskolin], NPFF2R, mean: inhibition of cAMP production induced by 1 µM forskolin (set to 1.00), transiently transfected HEK293 cells, mean of at least three independent experiments; for cAMP assay (Gi/o), NPFF2R: 4 h, lower = higher Gi/o activity, transfected HEK293, CRE-luciferase, mean of >=3 independent experiments
T5 construct: expressed in transfected cells; host or cells: HEK293, transient
T5 sequence (Q9Y5X5 103-522): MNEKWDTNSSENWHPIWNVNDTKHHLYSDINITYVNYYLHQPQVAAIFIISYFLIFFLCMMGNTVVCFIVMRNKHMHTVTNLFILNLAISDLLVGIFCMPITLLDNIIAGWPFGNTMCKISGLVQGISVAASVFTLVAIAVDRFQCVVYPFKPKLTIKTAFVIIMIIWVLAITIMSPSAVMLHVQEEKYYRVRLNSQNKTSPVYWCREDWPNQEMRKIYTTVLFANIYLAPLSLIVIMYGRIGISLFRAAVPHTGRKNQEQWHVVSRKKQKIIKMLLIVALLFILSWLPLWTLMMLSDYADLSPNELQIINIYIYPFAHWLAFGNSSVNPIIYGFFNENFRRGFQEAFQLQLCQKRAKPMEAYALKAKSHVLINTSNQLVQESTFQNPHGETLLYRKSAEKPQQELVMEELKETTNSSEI
Description: as §3, §2

[1] = 0.1 µM peptide (Table S8), mean of >=3 independent experiments
[2] = 10 µM peptide, mean of >=3 independent experiments (Tables S5 and S8)
[3] = 0.1 nM peptide (Table S5), mean of >=3 independent experiments
[4] = 0.1 µM peptide + 1 µM forskolin (set to 1.00)
[5] = 10 µM peptide + 1 µM forskolin (set to 1.00)

ASPSFIRF-NH2 [FLP-4-2, C. elegans FMRFamide-like peptide, C-terminally amidated, synthesized by SPPS]
IP accumulation with GαΔ6qi4myr, NPR-6 (NPR-6; [1]): 0.96 x-fold of basal
IP accumulation with GαΔ6qi4myr, NPR-6 (NPR-6; [2]): 1.19 x-fold of basal
IP accumulation with GαΔ6qi4myr, NPR-4b (NPR-4b; [1]): 4.71 x-fold of basal
IP accumulation with GαΔ6qi4myr, NPR-4b (NPR-4b; [2]): 12.66 x-fold of basal

APKPKFIRF-NH2 [FLP-5-1, C. elegans FMRFamide-like peptide, C-terminally amidated, synthesized by SPPS]
IP assay endog. Gαq + GαΔ6qi4myr, NPR-6 (NPR-6; [3]): 0.96 x-fold of basal
IP accumulation with GαΔ6qi4myr, NPR-6 (NPR-6; [1]): 0.96 x-fold of basal
IP accumulation with GαΔ6qi4myr, NPR-6 (NPR-6; [2]): 0.98 x-fold of basal
IP assay endog. Gαq + GαΔ6qi4myr, NPR-4b (NPR-4b; [3]): 2.00 x-fold of basal
IP accumulation with GαΔ6qi4myr, NPR-4b (NPR-4b; [1]): 2.00 x-fold of basal
IP accumulation with GαΔ6qi4myr, NPR-4b (NPR-4b; [2]): 5.53 x-fold of basal

GLGPRPLAF-NH2 [[R8A]FLP-21, R8A control peptide of FLP-21, penultimate arginine exchanged for an alanine]
Gi (Gs) [x-fold of forskolin], Y4R, mean (Y4R; 0.1 µM peptide): 0.81 x-fold of forskolin
Gi (Gs) [x-fold of forskolin], Y4R, mean (Y4R; 10 µM peptide): 0.85 x-fold of forskolin
Gi (Gs) [x-fold of forskolin], Y5R, mean (Y5R; 0.1 µM peptide): 0.84 x-fold of forskolin
Gi (Gs) [x-fold of forskolin], Y5R, mean (Y5R; 10 µM peptide): 0.87 x-fold of forskolin
Gi (Gs) [x-fold of forskolin], Y1R, mean (Y1R; 0.1 µM peptide): 0.85 x-fold of forskolin
Gi (Gs) [x-fold of forskolin], Y1R, mean (Y1R; 10 µM peptide): 0.76 x-fold of forskolin
Gi (Gs) [x-fold of forskolin], NPFF2R, mean (NPFF2R; 0.1 µM peptide): 0.88 x-fold of forskolin
Gi (Gs) [x-fold of forskolin], NPFF2R, mean (NPFF2R; 10 µM peptide): 0.60 x-fold of forskolin

RGPSGPLAF-NH2 [[R8A]FLP-15-2]
Gi (Gs) [x-fold of forskolin], Y4R, mean (Y4R; 0.1 µM peptide): 0.79 x-fold of forskolin
Gi (Gs) [x-fold of forskolin], Y4R, mean (Y4R; 10 µM peptide): 0.94 x-fold of forskolin
Gi (Gs) [x-fold of forskolin], Y5R, mean (Y5R; 0.1 µM peptide): 0.89 x-fold of forskolin
Gi (Gs) [x-fold of forskolin], Y5R, mean (Y5R; 10 µM peptide): 0.91 x-fold of forskolin
Gi (Gs) [x-fold of forskolin], Y1R, mean (Y1R; 0.1 µM peptide): 0.72 x-fold of forskolin
Gi (Gs) [x-fold of forskolin], Y1R, mean (Y1R; 10 µM peptide): 0.71 x-fold of forskolin
Gi (Gs) [x-fold of forskolin], NPFF2R, mean (NPFF2R; 0.1 µM peptide): 0.94 x-fold of forskolin
Gi (Gs) [x-fold of forskolin], NPFF2R, mean (NPFF2R; 10 µM peptide): 0.97 x-fold of forskolin

AGSDPNFLRF-NH2 [FLP-1-2, C. elegans FMRFamide-like peptide, C-terminally amidated, synthesized by SPPS]
IP accumulation with GαΔ6qi4myr, NPR-6 (NPR-6; [1]): 1.14 x-fold of basal
IP accumulation with GαΔ6qi4myr, NPR-6 (NPR-6; [2]): 5.19 x-fold of basal
IP accumulation with GαΔ6qi4myr, NPR-4b (NPR-4b; [1]): 2.48 x-fold of basal
IP accumulation with GαΔ6qi4myr, NPR-4b (NPR-4b; [2]): 8.55 x-fold of basal

NPENDTPFGTMRF-NH2 [FLP-3-4, C. elegans FMRFamide-like peptide, C-terminally amidated, synthesized by SPPS]
IP accumulation with GαΔ6qi4myr, NPR-6 (NPR-6; [1]): 1.04 x-fold of basal
IP accumulation with GαΔ6qi4myr, NPR-6 (NPR-6; [2]): 5.43 x-fold of basal
IP accumulation with GαΔ6qi4myr, NPR-4b (NPR-4b; [1]): 4.77 x-fold of basal
IP accumulation with GαΔ6qi4myr, NPR-4b (NPR-4b; [2]): 11.46 x-fold of basal

EASAFGDIIGELKGKGLGGRMRF-NH2 [FLP-27, NPY-like C. elegans FLP with C-terminal RxRF/Ya signature]
cAMP assay (Gi/o), Y4R (Y4R; [4]): 1.01 x-fold of forskolin
cAMP assay (Gi/o), Y4R (Y4R; [5]): 0.75 x-fold of forskolin
cAMP assay (Gi/o), Y5R (Y5R; [4]): 1.07 x-fold of forskolin
cAMP assay (Gi/o), Y5R (Y5R; [5]): 0.96 x-fold of forskolin
cAMP assay (Gi/o), Y1R (Y1R; [4]): 0.88 x-fold of forskolin
cAMP assay (Gi/o), Y1R (Y1R; [5]): 0.23 x-fold of forskolin
cAMP assay (Gi/o), NPFF2R (NPFF2R; [4]): 0.66 x-fold of forskolin
cAMP assay (Gi/o), NPFF2R (NPFF2R; [5]): 0.18 x-fold of forskolin

APLEGFEDMSGFLRTIDGIQKPRF-NH2 [FLP-33, NPY-like C. elegans FLP with C-terminal RxRF/Ya signature]
cAMP assay (Gi/o), Y4R (Y4R; [4]): 0.95 x-fold of forskolin
cAMP assay (Gi/o), Y4R (Y4R; [5]): 0.90 x-fold of forskolin
cAMP assay (Gi/o), Y5R (Y5R; [4]): 0.94 x-fold of forskolin
cAMP assay (Gi/o), Y5R (Y5R; [5]): 0.99 x-fold of forskolin
cAMP assay (Gi/o), Y1R (Y1R; [4]): 0.94 x-fold of forskolin
cAMP assay (Gi/o), Y1R (Y1R; [5]): 0.73 x-fold of forskolin
cAMP assay (Gi/o), NPFF2R (NPFF2R; [4]): 0.82 x-fold of forskolin
cAMP assay (Gi/o), NPFF2R (NPFF2R; [5]): 0.16 x-fold of forskolin
